Measurements as given in US20240270809A1, “ORAL GLP RECEPTOR AGONISTS” (priority 2020, published 2024).
Positions of bridges follow the written chain, without caps; N, C: chain ends. Non-standard residues stand in square brackets, D forms with d. Residues, ends and D or L forms follow the SMILES beside them. *: point of attachment. Malonyl(2,2-Me2,histaminyl) = CC(C)(C(=O)NCCc1cnc[nH]1)C(=O)*; Ala(1H-tetrazol-5-yl) = N[C@@H](Cc1nnn[nH]1)C(=O)O; Nle = CCCC[C@H](N)C(=O)O; Aib = CC(C)(N)C(=O)O

Columns and labels:
human GLP1 receptor = target: T1, human GLP1 receptor (Homo sapiens, UniProt P43220); assay: cAMP accumulation assay, functional agonism of human GLP1 receptor; type: cell-based; conditions: HEK cells infected with human GLP1 receptor BacMam virus, HTRF cAMP; for Emax: HEK293, read-out: Human GLP-1R agonist cAMP Emax; for EC50: read-out: Human GLP-1R agonist cAMP pEC50 (converted)
T1 construct: expressed in transfected cells; host or cells: HEK cells, BacMam virus transduction
T1 sequence (P43220 24-463): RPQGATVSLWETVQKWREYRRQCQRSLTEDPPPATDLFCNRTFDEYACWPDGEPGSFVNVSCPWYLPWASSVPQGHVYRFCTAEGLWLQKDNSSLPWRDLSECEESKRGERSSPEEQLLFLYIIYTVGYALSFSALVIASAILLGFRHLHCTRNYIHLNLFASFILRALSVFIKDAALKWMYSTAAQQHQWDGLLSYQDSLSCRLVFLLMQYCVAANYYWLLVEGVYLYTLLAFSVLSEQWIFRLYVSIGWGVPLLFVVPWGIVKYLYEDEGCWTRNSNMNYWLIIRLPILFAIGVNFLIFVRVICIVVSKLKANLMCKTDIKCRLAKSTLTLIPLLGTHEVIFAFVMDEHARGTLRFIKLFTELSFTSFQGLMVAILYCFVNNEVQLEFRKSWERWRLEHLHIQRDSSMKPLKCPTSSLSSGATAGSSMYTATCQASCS
How it was run: (§1)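 HTRF cAMP read-out: HEK cells expressing GLP1 or GLP2 receptor via 24 h BacMam infection, frozen before use; agonist exposure 45 min, 37° C, HBSS + 0.5 mM IBMX; stopped with detection reagents in lysis buffer.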

human GLP2 receptor = target: T2, human GLP2 receptor (Homo sapiens, UniProt O95838); assay: cAMP accumulation assay, functional agonism of human GLP2 receptor; type: cell-based; conditions: HEK cells infected with human GLP2 receptor BacMam virus, HTRF cAMP; for Emax: HEK293, read-out: Human GLP-2R agonist cAMP Emax; for EC50: read-out: Human GLP-2R agonist cAMP pEC50 (converted)
T2 construct: expressed in transfected cells; host or cells: HEK cells, BacMam virus transduction
T2 sequence (O95838 1-553): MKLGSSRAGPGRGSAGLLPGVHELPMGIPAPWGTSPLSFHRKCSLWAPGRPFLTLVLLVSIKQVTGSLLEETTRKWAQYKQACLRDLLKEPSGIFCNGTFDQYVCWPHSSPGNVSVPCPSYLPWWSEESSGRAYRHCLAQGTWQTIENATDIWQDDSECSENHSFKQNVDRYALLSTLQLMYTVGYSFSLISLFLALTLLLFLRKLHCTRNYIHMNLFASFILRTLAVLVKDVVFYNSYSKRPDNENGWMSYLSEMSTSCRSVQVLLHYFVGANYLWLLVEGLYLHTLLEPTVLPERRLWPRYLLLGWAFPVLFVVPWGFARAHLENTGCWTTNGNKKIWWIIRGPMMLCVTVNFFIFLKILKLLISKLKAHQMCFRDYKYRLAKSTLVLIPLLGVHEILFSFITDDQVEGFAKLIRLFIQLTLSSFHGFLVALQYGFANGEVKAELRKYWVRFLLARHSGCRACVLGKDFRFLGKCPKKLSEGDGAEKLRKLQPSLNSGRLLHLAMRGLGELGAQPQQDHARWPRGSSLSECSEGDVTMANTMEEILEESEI
How it was run: as §1

## CCCC[C@@H]1NC(=O)[C@H](CCC(=O)O)NC(=O)[C@@H](NC(=O)[C@H](CO)NC(=O)[C@H](Cc2ccccc2)NC(=O)[C@H](CO)NC(=O)CNC(=O)[C@H](Cc2nn[nH]n2)NC(=O)C(C)(C)C(=O)NCCc2c[nH]cn2)CCCCNC(=O)C[C@@H](C(=O)N[C@H](C(=O)N[C@@H](CC(C)C)C(=O)N[C@@H](CC(=O)O)C(=O)N[C@@H](CC(C)C)C(=O)N[C@@H](CCCCN)C(=O)N[C@@H](C)C(=O)N[C@@H](C)C(=O)N[C@@H](CCCCN)C(=O)N[C@@H](CC(=O)O)C(=O)N[C@@H](Cc2ccccc2)C(=O)N[C@H](C(=O)N[C@@H](CC(N)=O)C(=O)N[C@@H](Cc2c[nH]c3ccccc23)C(=O)N[C@@H](CC(C)C)C(=O)N[C@H](C(=O)N[C@@H](CCC(N)=O)C(=O)N[C@H](C(=O)N[C@@H](CCCCN)C(=O)N[C@H](C(=O)N[C@H](C(=O)N[C@@H](Cc2ccccc2)C(N)=O)[C@@H](C)O)[C@@H](C)CC)[C@@H](C)O)[C@@H](C)CC)[C@@H](C)CC)[C@@H](C)CC)NC(=O)[C@@H](Cc2ccccc2)NC1=O [Example 82] ({Malonyl(2,2-Me2,histaminyl)}-[Ala(1H-tetrazol-5-yl)]GSFSKE[Nle][dF]DILDLKAAKDFINWLIQTKITF-NH2; lactam 6-10 (inferred); C-terminus assumed)
Human GLP1 receptor
  Emax: 94.5%
  EC50: 12.6 nM
Human GLP2 receptor
  Emax: 104%
  EC50: 0.0794 nM

## CCCC[C@H](NC(=O)[C@H](CCC(=O)O)NC(=O)[C@H](CC(=O)O)NC(=O)[C@H](CO)NC(=O)[C@H](Cc1ccccc1)NC(=O)[C@H](CO)NC(=O)CNC(=O)[C@H](CC(=O)O)NC(=O)C(C)(C)NC(=O)[C@@H](N)Cc1c[nH]cn1)C(=O)N[C@H](Cc1ccccc1)C(=O)N[C@H](C(=O)N[C@H](C(=O)N[C@@H](CC(C)C)C(=O)N[C@@H](CC(=O)O)C(=O)N[C@@H](CC(C)C)C(=O)N[C@@H](CCCCN)C(=O)N[C@@H](C)C(=O)N[C@@H](C)C(=O)N[C@@H](CCCCN)C(=O)N[C@@H](CC(=O)O)C(=O)N[C@@H](Cc1ccccc1)C(=O)N[C@H](C(=O)N[C@H]1CCC(=O)NCCCC[C@@H](C(=O)N[C@H](C(=O)N[C@@H](CCCCN)C(=O)N[C@H](C(=O)N[C@H](C(=O)N[C@@H](CC(=O)O)C(N)=O)[C@@H](C)O)[C@@H](C)CC)[C@@H](C)O)NC(=O)[C@H]([C@@H](C)CC)NC(=O)[C@H](CC(C)C)NC(=O)[C@H](Cc2c[nH]c3ccccc23)NC1=O)[C@@H](C)CC)[C@@H](C)CC)[C@@H](C)O [Example 99] (H-H[Aib]DGSFSDE[Nle][dF]TILDLKAAKDFIEWLIKTKITD-NH2; lactam 24-28 (inferred); C-terminus assumed)
Human GLP1 receptor
  Emax: 97.1%
  EC50: 2.51 nM
Human GLP2 receptor
  Emax: 101%
  EC50: 0.00501 nM

## CCCC[C@@H]1NC(=O)[C@H](CCC(=O)O)NC(=O)[C@H](CC(=O)O)NC(=O)[C@@H](NC(=O)[C@H](Cc2ccccc2)NC(=O)[C@H](CO)NC(=O)CNC(=O)[C@H](Cc2nn[nH]n2)NC(=O)C(C)(C)C(=O)NCCc2c[nH]cn2)CCC(=O)NCCCC[C@@H](C(=O)N[C@H]2CCC(=O)NCCCC[C@@H](C(=O)N[C@H]3CCCCNC(=O)C[C@@H](C(=O)N[C@@H](Cc4ccccc4)C(=O)N[C@H](C(=O)N[C@H]4CCC(=O)NCCCC[C@@H](C(=O)N[C@H]5CCCCNC(=O)CC[C@@H](C(N)=O)NC(=O)[C@H]([C@@H](C)O)NC(=O)[C@H]([C@@H](C)CC)NC(=O)[C@H](CCCCN)NC5=O)NC(=O)[C@H]([C@@H](C)CC)NC(=O)[C@H](CC(C)C)NC(=O)[C@H](Cc5c[nH]c6ccccc56)NC4=O)[C@@H](C)CC)NC(=O)[C@H](CCCCN)NC(=O)[C@H](C)NC(=O)[C@H](C)NC3=O)NC(=O)[C@H](CC(=O)O)NC(=O)[C@H](CC(C)C)NC(=O)[C@H]([C@@H](C)CC)NC2=O)NC1=O [Example 81] ({Malonyl(2,2-Me2,histaminyl)}-[Ala(1H-tetrazol-5-yl)]GSFEDE[Nle]KEILDKKAAKDFIEWLIKKKITE-NH2; lactam 5-9, 10-14, 15-19, 22-26, 27-31; C-terminus assumed)
Human GLP1 receptor
  Emax: 56.1%
  EC50: 3.16 nM
Human GLP2 receptor
  Emax: 91.6%
  EC50: 0.631 nM

## CCCC[C@H](NC(=O)[C@H](CCC(=O)O)NC(=O)[C@@H]1CC(=O)NCCCC[C@H](NC(=O)[C@H](CC(=O)O)NC(=O)C(C)(C)NC(=O)[C@@H](N)Cc2c[nH]cn2)C(=O)N[C@@H](CO)C(=O)N[C@@H](Cc2ccccc2)C(=O)N[C@@H](CO)C(=O)N1)C(=O)N[C@H](Cc1ccccc1)C(=O)N[C@H](C(=O)N[C@H](C(=O)N[C@@H](CC(C)C)C(=O)N[C@@H](CC(=O)O)C(=O)N[C@@H](CC(C)C)C(=O)N[C@@H](CCCCN)C(=O)N[C@@H](C)C(=O)N[C@@H](C)C(=O)N[C@@H](CCCCN)C(=O)N[C@@H](CC(=O)O)C(=O)N[C@@H](Cc1ccccc1)C(=O)N[C@H](C(=O)N[C@@H](CC(N)=O)C(=O)N[C@@H](Cc1c[nH]c2ccccc12)C(=O)N[C@@H](CC(C)C)C(=O)N[C@H](C(=O)N[C@@H](CCC(N)=O)C(=O)N[C@H](C(=O)N[C@@H](CCCCN)C(=O)N[C@H](C(=O)N[C@H](C(=O)N[C@@H](CC(=O)O)C(N)=O)[C@@H](C)O)[C@@H](C)CC)[C@@H](C)O)[C@@H](C)CC)[C@@H](C)CC)[C@@H](C)CC)[C@@H](C)O [Example 84] (H-H[Aib]DKSFSDE[Nle][dF]TILDLKAAKDFINWLIQTKITD-NH2; lactam 4-8; C-terminus assumed)
Human GLP1 receptor
  Emax: 87.3%
  EC50: 10 nM
Human GLP2 receptor
  Emax: 103%
  EC50: 0.0501 nM
